How the values were obtained:
Type in all cases: biochemical
[1] = target: T1, Human lysosome (α-glucosidase) (Homo sapiens, UniProt P10253); assay: enzyme inhibition assay; conditions: read-out: IC50 ^a / MON-6d-DGJ
T1 construct: gene GAA
From the text: enzyme inhibition assay on Human lysosome (α-glucosidase)

[2] = target: T2, ceramide glucosyltransferase (HL60 glucosyltransferase) (Homo sapiens, UniProt Q16739); assay: enzyme inhibition assay, enzyme isolated from HL60 cells; conditions: read-out: IC50 ^a / MON-6d-DGJ
T2 construct: gene UGCG; native enzyme isolated from human promyelocytic HL60 cells
T2 sequence (Q16739 1-394): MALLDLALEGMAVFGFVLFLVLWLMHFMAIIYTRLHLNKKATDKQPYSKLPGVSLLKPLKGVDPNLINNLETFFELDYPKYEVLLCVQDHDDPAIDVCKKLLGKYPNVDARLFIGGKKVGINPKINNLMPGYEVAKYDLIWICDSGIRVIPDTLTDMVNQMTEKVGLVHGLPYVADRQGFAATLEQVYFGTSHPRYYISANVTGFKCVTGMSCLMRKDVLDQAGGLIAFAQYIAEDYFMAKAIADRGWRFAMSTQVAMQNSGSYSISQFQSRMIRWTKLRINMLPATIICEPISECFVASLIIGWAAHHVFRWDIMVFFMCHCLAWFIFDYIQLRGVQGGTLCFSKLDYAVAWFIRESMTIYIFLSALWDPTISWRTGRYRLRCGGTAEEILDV
From the text: enzyme inhibition assay, enzyme isolated from HL60 cells on ceramide glucosyltransferase (HL60 glucosyltransferase)

[3] = target: T3, Rat intestinal isomaltase (Rattus norvegicus, UniProt P23739); assay: enzyme inhibition assay; conditions: read-out: IC50 ^a / MON-6d-DGJ
T3 construct: gene Si; native rat intestinal enzyme; isomaltase (N-terminal) subunit of sucrase-isomaltase
T3 sequence (P23739 1-1013 limits assumed): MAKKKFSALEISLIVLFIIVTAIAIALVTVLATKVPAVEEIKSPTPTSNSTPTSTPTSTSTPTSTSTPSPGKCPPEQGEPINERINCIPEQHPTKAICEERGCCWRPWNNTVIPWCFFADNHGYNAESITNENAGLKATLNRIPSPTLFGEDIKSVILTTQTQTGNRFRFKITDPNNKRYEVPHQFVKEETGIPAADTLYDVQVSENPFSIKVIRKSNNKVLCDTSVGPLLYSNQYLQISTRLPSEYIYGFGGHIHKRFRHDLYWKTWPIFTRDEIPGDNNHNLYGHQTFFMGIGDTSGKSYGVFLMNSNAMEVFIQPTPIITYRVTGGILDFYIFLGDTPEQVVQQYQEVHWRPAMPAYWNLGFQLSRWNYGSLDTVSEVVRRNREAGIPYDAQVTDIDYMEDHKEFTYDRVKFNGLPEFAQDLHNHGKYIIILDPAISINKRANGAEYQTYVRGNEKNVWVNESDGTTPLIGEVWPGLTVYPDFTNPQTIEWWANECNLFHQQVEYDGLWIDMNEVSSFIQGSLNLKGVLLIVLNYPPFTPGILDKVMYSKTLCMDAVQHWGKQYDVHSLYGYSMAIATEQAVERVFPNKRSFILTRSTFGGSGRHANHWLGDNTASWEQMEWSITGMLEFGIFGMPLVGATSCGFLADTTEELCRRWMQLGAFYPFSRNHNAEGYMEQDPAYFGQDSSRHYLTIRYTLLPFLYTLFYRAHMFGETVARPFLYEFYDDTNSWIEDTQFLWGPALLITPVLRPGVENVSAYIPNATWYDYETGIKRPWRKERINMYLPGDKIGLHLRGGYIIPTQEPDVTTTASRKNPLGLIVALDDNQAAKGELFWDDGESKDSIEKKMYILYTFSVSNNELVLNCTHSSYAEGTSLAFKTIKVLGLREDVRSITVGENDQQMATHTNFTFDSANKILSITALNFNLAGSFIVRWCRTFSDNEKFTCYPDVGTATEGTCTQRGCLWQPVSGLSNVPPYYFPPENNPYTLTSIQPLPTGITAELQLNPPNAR
From the text: enzyme inhibition assay on Rat intestinal isomaltase

[4] = target: T4, Human lysosome (α-galactosidase) (Homo sapiens, UniProt P06280); assay: enzyme inhibition assay; conditions: read-out: IC50 ^a / MON-6d-DGJ
T4 construct: gene GLA
T4 sequence (P06280 32-429): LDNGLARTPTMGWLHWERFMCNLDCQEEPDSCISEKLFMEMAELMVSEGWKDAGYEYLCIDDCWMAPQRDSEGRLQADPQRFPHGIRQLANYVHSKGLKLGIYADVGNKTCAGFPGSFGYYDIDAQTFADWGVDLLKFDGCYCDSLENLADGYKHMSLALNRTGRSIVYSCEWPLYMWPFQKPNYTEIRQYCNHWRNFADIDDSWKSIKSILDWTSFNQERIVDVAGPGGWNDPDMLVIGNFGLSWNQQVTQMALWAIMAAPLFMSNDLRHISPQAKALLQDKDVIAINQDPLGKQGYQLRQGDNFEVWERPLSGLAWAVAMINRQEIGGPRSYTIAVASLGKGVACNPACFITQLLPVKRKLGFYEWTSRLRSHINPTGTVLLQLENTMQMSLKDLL
From the text: enzyme inhibition assay on Human lysosome (α-galactosidase)

Rat intestinal maltase = target: T5, Rat intestinal maltase; assay: enzyme inhibition assay; conditions: IC50 not reached up to maximal dose; read-out: IC50 ^a / MON-6d-DGJ
T5 construct: gene Mgam; native rat intestinal enzyme activity; maltase may be maltase-glucoamylase and/or sucrase-isomaltase
From the text: enzyme inhibition assay on Rat intestinal maltase

Rat intestinal sucrase = target: T6, Rat intestinal sucrase (Rattus norvegicus, UniProt P23739); assay: enzyme inhibition assay; conditions: read-out: IC50 ^a / MON-6d-DGJ
T6 construct: gene Si; native rat intestinal enzyme; sucrase (C-terminal) subunit of sucrase-isomaltase
T6 sequence (P23739 1014-1841 limits assumed): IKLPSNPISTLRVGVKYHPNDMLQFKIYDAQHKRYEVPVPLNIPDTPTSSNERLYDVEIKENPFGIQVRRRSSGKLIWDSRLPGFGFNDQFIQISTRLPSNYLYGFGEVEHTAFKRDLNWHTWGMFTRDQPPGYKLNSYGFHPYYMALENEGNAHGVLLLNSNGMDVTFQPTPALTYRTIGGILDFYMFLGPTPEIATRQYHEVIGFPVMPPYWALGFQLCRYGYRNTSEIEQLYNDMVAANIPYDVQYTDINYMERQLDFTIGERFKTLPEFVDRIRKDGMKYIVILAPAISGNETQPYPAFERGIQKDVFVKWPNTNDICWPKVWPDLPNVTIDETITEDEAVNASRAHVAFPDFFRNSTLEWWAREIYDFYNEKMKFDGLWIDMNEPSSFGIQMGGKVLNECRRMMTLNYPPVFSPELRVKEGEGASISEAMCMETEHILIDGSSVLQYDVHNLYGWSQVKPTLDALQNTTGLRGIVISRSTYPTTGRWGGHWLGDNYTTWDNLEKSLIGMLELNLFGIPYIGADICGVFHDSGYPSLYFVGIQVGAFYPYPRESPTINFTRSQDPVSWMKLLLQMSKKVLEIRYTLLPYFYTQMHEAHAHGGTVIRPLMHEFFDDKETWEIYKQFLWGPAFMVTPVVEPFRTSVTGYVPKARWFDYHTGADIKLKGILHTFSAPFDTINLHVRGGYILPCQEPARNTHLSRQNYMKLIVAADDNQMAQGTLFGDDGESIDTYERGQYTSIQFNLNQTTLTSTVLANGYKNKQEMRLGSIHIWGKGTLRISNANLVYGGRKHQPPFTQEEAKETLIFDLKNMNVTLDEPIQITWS
From the text: enzyme inhibition assay on Rat intestinal sucrase

Mouse ER α-glucosidase I = target: T7, Mouse ER α-glucosidase I (Mus musculus, UniProt Q80UM7); assay: enzyme inhibition assay, purified enzyme; conditions: read-out: IC50 ^a / MON-6d-DGJ
T7 construct: gene Mogs
T7 sequence (Q80UM7 1-834): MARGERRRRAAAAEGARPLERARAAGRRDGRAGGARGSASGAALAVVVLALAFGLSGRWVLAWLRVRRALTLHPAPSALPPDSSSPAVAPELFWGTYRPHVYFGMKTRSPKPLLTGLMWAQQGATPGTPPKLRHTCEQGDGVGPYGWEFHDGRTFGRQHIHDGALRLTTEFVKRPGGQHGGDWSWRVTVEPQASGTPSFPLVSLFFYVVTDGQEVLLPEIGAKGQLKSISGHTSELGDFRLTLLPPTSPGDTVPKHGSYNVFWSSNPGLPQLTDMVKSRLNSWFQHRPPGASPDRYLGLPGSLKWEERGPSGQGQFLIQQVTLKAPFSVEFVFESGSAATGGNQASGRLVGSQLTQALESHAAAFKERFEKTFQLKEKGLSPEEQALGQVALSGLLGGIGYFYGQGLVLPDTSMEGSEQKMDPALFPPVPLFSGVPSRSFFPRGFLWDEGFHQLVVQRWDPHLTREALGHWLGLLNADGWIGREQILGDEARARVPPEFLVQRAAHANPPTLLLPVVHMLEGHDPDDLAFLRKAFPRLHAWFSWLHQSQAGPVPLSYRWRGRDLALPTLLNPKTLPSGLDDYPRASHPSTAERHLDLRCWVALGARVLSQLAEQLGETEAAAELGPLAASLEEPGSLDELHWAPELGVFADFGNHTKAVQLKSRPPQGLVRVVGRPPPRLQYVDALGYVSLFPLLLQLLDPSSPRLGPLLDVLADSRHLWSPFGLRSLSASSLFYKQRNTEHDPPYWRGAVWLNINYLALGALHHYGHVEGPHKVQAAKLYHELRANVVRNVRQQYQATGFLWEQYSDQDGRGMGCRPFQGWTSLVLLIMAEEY
From the text: enzyme inhibition assay, purified enzyme on Mouse ER α-glucosidase I

[5] = target: T8, Mouse ER α-glucosidase II (Mus musculus, UniProt Q8BHN3); assay: enzyme inhibition assay, purified enzyme; conditions: read-out: IC50 ^a / MON-6d-DGJ
T8 construct: gene Ganab; with Glucosidase 2 subunit beta
T8 sequence (Q8BHN3 33-944): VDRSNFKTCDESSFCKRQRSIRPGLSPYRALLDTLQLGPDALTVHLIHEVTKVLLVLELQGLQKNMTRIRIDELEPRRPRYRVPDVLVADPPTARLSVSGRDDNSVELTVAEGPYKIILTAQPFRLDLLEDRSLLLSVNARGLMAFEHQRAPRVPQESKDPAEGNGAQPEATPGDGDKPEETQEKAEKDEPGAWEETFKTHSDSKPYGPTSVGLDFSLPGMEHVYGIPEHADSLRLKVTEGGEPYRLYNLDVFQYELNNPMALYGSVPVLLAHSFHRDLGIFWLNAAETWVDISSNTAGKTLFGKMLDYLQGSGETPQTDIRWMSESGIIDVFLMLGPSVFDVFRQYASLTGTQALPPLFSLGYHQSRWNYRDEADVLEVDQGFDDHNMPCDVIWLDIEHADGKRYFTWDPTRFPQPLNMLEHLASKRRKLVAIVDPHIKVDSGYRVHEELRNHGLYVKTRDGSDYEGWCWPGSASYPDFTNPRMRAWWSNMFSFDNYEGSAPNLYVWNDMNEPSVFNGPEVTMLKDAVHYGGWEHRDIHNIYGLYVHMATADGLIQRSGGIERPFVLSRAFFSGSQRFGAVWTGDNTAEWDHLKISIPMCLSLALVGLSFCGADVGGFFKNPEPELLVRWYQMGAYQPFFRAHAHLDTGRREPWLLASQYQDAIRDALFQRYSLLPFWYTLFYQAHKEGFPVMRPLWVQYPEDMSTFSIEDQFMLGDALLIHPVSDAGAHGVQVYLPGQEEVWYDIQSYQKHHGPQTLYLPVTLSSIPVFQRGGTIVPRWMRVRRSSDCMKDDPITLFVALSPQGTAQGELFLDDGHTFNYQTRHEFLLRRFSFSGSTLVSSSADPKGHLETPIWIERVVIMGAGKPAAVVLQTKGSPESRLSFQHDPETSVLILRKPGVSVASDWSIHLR
T8 sequence (O08795 15-521 partner): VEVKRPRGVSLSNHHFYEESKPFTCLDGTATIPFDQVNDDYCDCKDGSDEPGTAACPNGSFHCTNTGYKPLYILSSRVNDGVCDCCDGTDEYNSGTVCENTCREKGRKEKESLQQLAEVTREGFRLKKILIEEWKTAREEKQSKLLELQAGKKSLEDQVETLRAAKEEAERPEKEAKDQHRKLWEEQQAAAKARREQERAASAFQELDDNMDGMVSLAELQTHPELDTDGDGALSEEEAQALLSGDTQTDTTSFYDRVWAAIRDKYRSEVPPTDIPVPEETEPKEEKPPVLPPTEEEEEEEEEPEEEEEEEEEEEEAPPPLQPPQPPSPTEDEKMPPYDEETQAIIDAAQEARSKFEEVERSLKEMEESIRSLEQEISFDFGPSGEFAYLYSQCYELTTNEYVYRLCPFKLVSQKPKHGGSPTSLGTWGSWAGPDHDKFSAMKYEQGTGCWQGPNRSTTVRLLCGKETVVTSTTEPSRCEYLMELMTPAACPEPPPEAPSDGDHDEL
From the text: enzyme inhibition assay, purified enzyme on Mouse ER α-glucosidase II

`COCCCCCCCCCN1C[C@H](O)[C@@H](O)[C@@H](O)[C@H]1C` [MON-6d-DGJ, N-(9′-methoxynonyl)-1,6-dideoxygalactonojirimycin] was tested, and the IC50 [1] was > 1050 µM, the IC50 [2] was 88.3 µM and the IC50 [3] was > 1050 µM. For the same compound, the IC50 [4] was 256 µM, the IC50 (Rat intestinal maltase) was > 1050 µM and the IC50 (Rat intestinal sucrase) was > 1050 µM. For the same compound, the IC50 (Mouse ER α-glucosidase I) was > 1050 µM and the IC50 [5] was > 1050 µM.
